Results on 16 molecules are retold here after US6407058B1, “Modifying the permeability of physiological barriers” (Eisai Co., Limited, priority 1996, dated 2002).

In test [1] the test system is p100/p120. The test can be described thus: p100/p120 electrophoretic mobility (band shift) by immunoblotting, MDCK I cells. Type of test: cell-based.
The test system of test [2] is pig brain endothelial cell tight junctions. As to the kind of experiment: transcellular electrical resistance (TER) of pig brain endothelial cell cultures. Type of test: cell-based. Here is the method:
After 2 minutes the Transwells were returned to control medium and transcellular electrical resistance measurements were taken every minute for the following 18 minutes.
(§1) MDCK strain I and II cells were provided by Barry Gumbiner (memorial Sloan-Kettering Cancer Center, NY). LLC-PK1 and Caco-2 cells were obtained from the European Collection of Animal Cell Cultures. All cells were maintained at 37° C. under 5% CO2 in humidified air. MDCK strain I and II cells were maintained in MEM containing 10% FCS, 100 U/ml penicillin, 100 μg/ml streptomycin and 2 mM L-glutamine. Caco-2 cells were maintained in MEM containing 15% FCS, 1% non-essential amino acids and 1 μg/ml bovine insulin (Sigma I-6634). LLC-PK1 cells were grown in M199 (Gibco), 10% FCS, 100 U/ml penicillin, 100 μg/ml streptomycin and 2 mM L-glutamine. For whole cell lysate analysis, 10^5 cells were plated on 6.5 mm diameter, 0.4 μm, polycarbonate Transwell filters from Costar, in 0.25 ml of medium. The basolateral chamber contained 0.75 ml of medium. For immunoprecipitation, 5×10^5 cells were plated onto 24 mm Transwell filters, in 2 ml of medium, with 3 ml of medium in the lower chamber. Cells were used 4-7 days after plating. Tissue culture materials were from Gibco. Porcine brain endothelial cells were isolated and grown by modifications of a previously published procedure (Rubin et al., 1991). Brain capillary fragments were plated on dishes coated with rat tail collagen and human fibronectin. The cultures were fed every other day with growth medium composed of 50% astrocyte-conditioned medium and 50% Dulbecco's Modified Eagle Medium containing 10% plasma-derived serum, 125 μg/ml heparin, antibiotics and glutamine. They were incubated in a humidified atmosphere of 10% CO2 at 37° C. When the endothelial cells were approximately 50% confluent (after 4-6 days in culture), they were trypsinized and plated onto collagen-coated polycarbonate Transwell filters (6.5 mm diameter, 0.4 μm pore size, tissue culture treated, Costar Corp, Cambridge, Mass., U.S.A.) in the same medium (250 μl apically, 750 μl basolaterally). After 2-3 days on filters, the medium was switched to a 1:1 mixture of astrocyte-conditioned medium and a Dulbecco's Modified Eagle Medium-based, chemically defined medium (‘N2’, Rubin et al., 1991; Bottenstein and Sato, 1979). The final concentration of plasma-derived serum was 5%. Human umbilical vein endothelial cells were from Clonetics.
Transcellular electrical resistance (TER) measurements were taken with a pair of fixed, current-passing, voltage measuring electrodes (World Precision Instruments, Stevenage, Hertfordshire, U.K.). TER values are expressed in Ωcm^2 and were corrected for the resistance of cell-free filters.

In test [3] the test system is p100/p120. As to the kind of experiment: p100/p120 electrophoretic mobility, human umbilical vein endothelial cells (HUVECs). Type of test: cell-based. The conditions noted are these: HUVEC.
Test [4] relates to p100/p120. As to the kind of experiment: p100/p120 electrophoretic mobility (band shift) by immunoblotting, MDCK I cells. Type of test: cell-based. The conditions noted are these: MDCK I; for reversal of PDB-induced p100/p120 band shift: 200 nM PDB 30 minutes, then 2.5 μM inhibitor added in presence of PDB; for block of PDB-induced p100/p120 band shift: pretreatment 5 minutes (bisindolylmaleimide I or V 2.5 μM, Ro 31-8425 5 μM), then 200 nM PDB 30 minutes. Here is the method:
The migration of the cellular proteins p100 and p120 during electrophoresis is increased following PDB-treatment of MDCK I cells. PDB (phorbol-12,13-dibutyrate) is a pharmacological activator of protein kinase C. MDCK I cells are a kidney derived epithelial cell line, with particularly well developed junctional complexes. Cells treated for 30 minutes with either 200 nM PDB (+) or vehicle (−) were then lysed into Laemmli sample buffer, and separated by electrophoresis using 6% acrylamide gels. Proteins were transferred to nitrocellulose and probed with antibodies to p100/p120, and then reprobed with E-cadherin and paxillin antibodies.
as §1
(§2) Whole cell lysates were prepared by rapidly replacing the culture medium in 6.5 mm with hot Laemmli sample buffer, followed by heating at 100° C. for 5 minutes. Immunoprecipitations were carried out at 4° C. Confluent monolayers of cells were washed rapidly with ice cold PBS (containing 0.9 mM CaCl2 and 0.5 mM MgCl2) before addition of 0.5 ml of the appropriate buffer. The filters were then gently scraped, and the lysate was removed and centrifuged at 14000× g. The supernatant was precleared with 10% (w/v) protein A-Sepharose in lysis buffer for 30-60 minutes. Appropriate primary antibodies were added to the lysate, and after 2-3 hours the immunecomplex was isolated, using rabbit anti-mouse secondary antibodies (Jackson Immunoresearch Labs Inc., West Grove, Pa.) and protein A-Sepharose. The beads were washed fives times with lysis buffer, and the bound protein was solubilized in SDS-sample buffer, followed by heating at 100° C. for 5 minutes.
Cell extracts or immunoprecipitates in SDS sample buffer were resolved by SDS-PAGE. […]

Test [5] concerns p100/p120. As to the kind of experiment: p100/p120 electrophoretic mobility, primary pig brain endothelial cells (PBECs). Type of test: cell-based. The conditions noted are these: for mobility of p120 and p100: LPA 10 μM. Here is the method: (§3) Cells were treated with or without 200 nM PDB for 30 minutes, lysed into Laemmli sample buffer, separated by electrophoresis and analysed by immunoblotting with antibodies recognising p100 and p120.
as §1
as §2, with “A-Sepharose.” for “A-Sepharose. The beads were washed fives times with lysis buffer, and the bound protein was solubilized in SDS-sample buffer, followed by heating at 100° C. for 5 minutes.”

The test system of test [6] is brain endothelial cells tight junction. The conditions noted are these: pig brain endothelial cells (Schulze et al.); cited from earlier work.
Test [7] shares this test system. As to the kind of experiment: tight junction permeability in pig brain endothelial cells. Type of test: cell-based. The conditions noted are these: results not shown.
Test [8] deals with p100/p120. The test can be described thus: p100/p120 electrophoretic mobility, human umbilical vein endothelial cells (HUVECs). The format is cell-based. The conditions noted are these: HUVEC; for mobility of p100 and p120, blocker alone: 10 μM blocker alone. Here is the method:
as §3
Human umbilical vein endothelial cells were incubated with histamine (His), pyrilamine (Pyr) or cimetidine (Cim) alone or in combination. As indicated, cells were preincubated in the absence or presence of cimetidine (10 μM) or pyrilamine (10 μM) for 10 minutes and then treated with or without histamine (10 μM) for a further 10 minutes. The cells were extracted and protein analysed by gel electrophoresis and immunoblotting. […] In the following examples, increase mobility of p100/p120 means decreased phosphorylation.
as §2
Cell extracts or immunoprecipitates in SDS sample buffer were resolved by SDS-PAGE. The slab gels were then equilibrated in buffer comprising; 48 mM Tris, 39 mM glycine, 20% methanol and 0.03% SDS. Proteins were transferred to nitrocellulose filters (Hybond ECL; Amersham), which were Ponceau S stained and then blocked for 2 hours at 37° C. with 1% BSA in PBS containing 0.05% Tween-20. Filters were then probed with p120 antibody, at a dilution of 1:2500. After washing, filters were incubated with horseradish peroxidase conjugated anti-mouse antibody (Amersham), at a dilution of 1:5000. The filters were then extensively washed in PBS/0.5% Tween-20, and immunoreactive bands were detected by enhanced chemiluminescence (Amersham) following the manufacturers instructions.

[9] abbreviates: 15 minutes, histamine 10 μM, LPA 10 μM, ATP 100 μM.

A value given as a limit tells only on which side of the number the result lay.

As for `CCCOc1ccc2c(c1)c1c3c(c4c5ccccc5n5c4c1n2[C@H]1C[C@](O)(C(=O)OC)[C@]5(C)O1)CNC3=O` [KT 5926], in the test with p100/p120 [1] (1 μM KT 5926), the “effect on p100/p120 mobility” value is given as “also induced a p100/p120 band shift”.

For the molecule `CN[C@@H]1C[C@H]2O[C@@](C)([C@@H]1OC)n1c3ccccc3c3c4c(c5c6ccccc6n2c5c31)C(=O)NC4` [staurosporine], the “effect on p100/p120 mobility” value in the test with p100/p120 [1] (100 nM staurosporine, 60 minutes) is “induced a p100/p120 band shift”.

As for `OC[C@@H](O)[C@@H](O)[C@H](O)[C@H](O)CO` [mannitol], the transcellular electrical resistance entry in test [2] (0.2-0.4 M mannitol, up to 6 hours) was “causes a drop”. Moreover, in test [2] (0.4M or 0.8M mannitol 2 minutes, then control medium 18 minutes), the “reversibility of drop in transcellular electrical resistance” value is “fully reversible”. For the same molecule, the “time at which drop in transcellular electrical resistance is clearly seen” value in test [2] (0.8M mannitol, recorded over 2 minutes) was not above 20 s.

`Nc1ncnc2c1ncn2[C@@H]1O[C@H](COP(=O)(O)OP(=O)(O)OP(=O)(O)O)[C@@H](O)[C@H]1O` [ATP]: the “mobility of p100 and p120” value in the test on p100/p120 [3] (setting [9]) was “increase in the mobility”.

Consider `CCCC(=O)O[C@@H]1[C@@H](C)[C@@]2(O)[C@@H](C=C(CO)C[C@@]3(O)C(=O)C(C)=C[C@@H]23)[C@@H]2C(C)(C)[C@]12OC(=O)CCC` [4α-PDB], for which, in the test with p100/p120 [4] (200 nM 4α-PDB, 30 minutes), the “effect on p100/p120 mobility” value was “no effect”.

Take `OC[C@@H](O)[C@@H](O)[C@H](O)[C@@H](O)CO` [sorbitol]: the “transcellular electrical resistance after treatment” value in test [2] (0.3M sorbitol, 10 minutes, from 677 before treatment) is listed as 73 Ωcm^2.

Consider `NCCc1c[nH]cn1` [histamine], for which, in the test on p100/p120 [3] (5 minutes, histamine 10 μM, PDB 200 nM), the “mobility of p120 and p100” value is listed as “increased mobility”. In addition, the “mobility of p100 and p120” value is on record as “increase in the mobility” in the test with p100/p120 [3] (setting [9]) and “induced an increased mobility” with p100/p120 [3] (histamine 10 μM, 10 minutes). The “mobility of p100 and p120, time course” value with p100/p120 [3] (histamine, times indicated (FIG. 11)) is recorded as “rapid increase in the mobility”.

As to `CCCCCCCC(=O)OCC(CO)OC(=O)CCCCCCC` (stereo not shown) [DiC8, 1,2-dioctanoylglycerol], the “effect on p100/p120 mobility” value in the test on p100/p120 [1] (0.5 mM DiC8, 10 minutes) was “induces a p100/p120 mobility shift”.

As for `CN1C(=O)C(c2c[nH]c3ccccc23)=C(c2c[nH]c3ccccc23)C1=O` [bisindolylmaleimide V], in the test on p100/p120 [4], the “reversal of PDB-induced p100/p120 band shift” value is reported as “did not reverse” and the “block of PDB-induced p100/p120 band shift” value is “unable to block”.

Turning to `COC[C@@H]([C@H](O)[C@H](O)C(=O)NCC[C@H](C)c1nc(/C=C/C[C@@H]2O[C@]3(C[C@@H](O)[C@@H]2C)O[C@H]([C@H](C[C@H](O)[C@H](C)[C@H](O)[C@H](C)/C=C(C)/C(C)=C/C=C/C(C)=C\C#N)OC)[C@H](OP(=O)(O)O)C3(C)C)co1)N(C)C` [calyculin A], the “effect on p100/p120 mobility” value in the test with p100/p120 [1] (100 nM calyculin A, 60 minutes) is “upward band shift”.

With `Cn1cc(C2=C(c3c4n(c5ccccc35)CCC(CN)C4)C(=O)NC2=O)c2ccccc21` (stereo not shown) [Ro 31-8425], the “block of PDB-induced p100/p120 band shift” value in the test on p100/p120 [4] is on record as “completely abolished”.

As to `C=C1[C@@H](O)[C@@H]2O[C@]3(CC[C@H](/C=C/[C@@H](C)[C@@H]4CC(C)=C[C@@]5(O[C@H](C[C@@](C)(O)C(=O)O)CC[C@H]5O)O4)O3)CC[C@H]2O[C@@H]1[C@@H](O)C[C@H](C)[C@H]1O[C@@]2(CCCCO2)CC[C@H]1C` [okadaic acid], the “effect on p100/p120 mobility” value in the test with p100/p120 [1] (1 μM okadaic acid, 60 minutes) was “upward band shift”.

For the molecule lysophosphatidic acid [LPA], the “mobility of p100 and p120” value with p100/p120 [3] (setting [9]) is “increase in the mobility”. The “mobility of p120 and p100” value in the test with p100/p120 [5] (pig brain endothelial cells, 30 minutes) is “increased mobility”; in the test with p100/p120 [5] (pig brain endothelial cells, 70 minutes), “increased mobility”. Besides, the “onset of LPA effect on p100/p120” value in the test with p100/p120 [5] (pig brain endothelial cells, further experiments) is on record as “within a few minutes”. Moreover, in test [6], the tight junction permeability result is “increases tight junction permeability”.

`CN(C)CCCn1cc(C2=C(c3c[nH]c4ccccc34)C(=O)NC2=O)c2ccccc21` [bisindolylmaleimide I]: the “block of phorbol dibutyrate effect on p100/p120 mobility” value in the test on p100/p120 [3] (bisindolylmaleimide 2 μM preincubation 15 minutes, then PDB 200 nM 5 minutes) was “blocked”. For the same molecule, the “block of histamine effect on p100/p120 mobility” value in the test with p100/p120 [3] (bisindolylmaleimide 2 μM preincubation 15 minutes, then histamine 10 μM 5 minutes) was “not so strongly affected”. In addition, the “block of LPA-induced increase in tight junction permeability” value in test [7] was “did not block”. Also, in test [2] (2.5 μM bisindolylmaleimide pre-incubation, then 0.3M sorbitol 10 minutes, from 643 before treatment), the “transcellular electrical resistance after sorbitol following bisindolylmaleimide pre-incubation” value is recorded as 93 Ωcm^2. In the test on p100/p120 [4], the “reversal of PDB-induced p100/p120 band shift” value is “can be reversed” and the “block of PDB-induced p100/p120 band shift” value was “completely abolished”. The “prevention of sorbitol-induced increase in p100/p120 mobility” value in the test on p100/p120 [5] (2.5 μM bisindolylmaleimide 5 minutes pretreatment, then 0.3M sorbitol) is “not prevented”. For the same molecule, the “block of LPA-induced p100/p120 mobility increase” value with p100/p120 [5] (bisindolylmaleimide 2.5 μM preincubation 10 minutes, then LPA 10 μM 70 minutes) is “not blocked”.

`CN/C(=N/CCSCc1nc[nH]c1C)NC#N` [cimetidine]: the “mobility of p100 and p120, blocker alone” value in the test on p100/p120 [8] is on record as “no effect”.

As to `COc1ccc(CN(CCN(C)C)c2ccccn2)cc1` [pyrilamine], the “mobility of p100 and p120, blocker alone” value in the test on p100/p120 [8] is given as “no effect”. Further, the “block of histamine effect on p100/p120 mobility” value with p100/p120 [8] (10 μM preincubation 10 minutes, then histamine 10 μM 10 minutes) was “blocked the histamine effect”.
